# Measurements taken from patent publication EP0252983B1, “SALTS OF N-(VINYLOXIETHYL)DITHIOCARBAMIC ACID, METHOD OF OBTAINING THEREOF AND […] ON THEM” (priority 1985, dated 1987).
# Columns and labels:
# [1] = tested on: Fusarium sambucinum; assay: Mycelial growth inhibition on agar (contact activity); format: cell-based; conditions: Wirkstoffkonzentration 0,003 %; Würzeagar; Tabelle 7
# Protocol: (§1) Die Prüfungen werden nach dem Verfahren zur Ermittlung der Kontaktaktivität durchgeführt. Man verwendet das in Wasser gelöste Kalium-N-(vinyloxyäthyl)dithiocarbamat, führt es in ein Nährmedium ein und vergießt auf Petri-Schalen. Nach 24 Stunden wird mit Pilzmyzelium nach einem Stichverfahren geimpft. Dann temperiert man die Schalen innerhalb von 5 Tagen bei einer zwischen 24 und 26 °C liegenden Temperatur und mißt den Durchmesser von Pilzkolonien, ermittelt den Prozentsatz der Hemmung des Myzelwachstums (S) ausgehend von Angaben am 5. Tag nach der Abbott-Formel [drawing 13] worin dc für den Durchmesser der Pilzkolonien, de für den Durchmesser von Pilzkolonien in der Schale stehen, wo ein die zu prüfenden Stoffe enthaltendes Medium vorhanden ist. Dieses Verfahren zur Ermittlung der mikrobiologischen Aktivität ist in anderen Beispielen verwendet.
# (§2) Tabelle 2 zeigt die Angaben für die fungizide Aktivität von Kalium-N-(vinyloxyäthyl)dithiocarbamat und bekannten wirksamen Fungiziden Poly arbazin und TMTD. Der zu prüfende Stoff wurde im Laufe der Versuche in Wasser aufgelöst, und die Kulturen wurden auf einem Kartoffel-Glukose-Nährmedium gezüchtet.
# [2] = tested on: Fusarium moniliforme; assay: as above; format: cell-based; conditions: Wirkstoffkonzentration 0,003 %; Würzeagar; Tabelle 7
# Protocol: as §1, §2
# [3] = tested on: Aspergillus niger; assay: as above; format: cell-based; conditions: Wirkstoffkonzentration 0,003 %, Würzeagar
# [4] = tested on: Wurzelfäule von Gurken; assay: Cucumber root rot test in treated non-sterile soil; format: in vivo
# Source text: Man nimmt 100 g unsterilen Boden, enthaltend 1 Teil Humus, 1 Teil Rasenboden, 1 Teil Sand, gibt darin ein Präparat, das Zink-bis-(N-vinyloxyäthyldithiocarbamat) ausgehend von 200 kg/ha Wirkstoff enthält.
# Das Präparat wird wie folgt hergestellt: Einer gesättigten Lösung des genannten Salzes in Azeton gibt man einige Tropfen Emulgiermittel (hydroxyäthylierte Alkylphenole) zu und verdünnt mit Wasser. Innerhalb von 7 bis 8 Tagen begießt man dann bodenhaltige Gefäße mit Wasser, bis der Boden in einen Zustand gebracht wird, der 60% der vollen Wasseraufnahmekapazität des Feldes beträgt. Nach dieser Zeit erfolgt die Aussaat von Gurkensamen, eingequollen im voraus in einer 0,1%igen KMn04-Lösung innerhalb von 2 Stunden. In jedes Gefäß werden je 10 Samen auf eine Tiefe von 1 bis 1,5 cm gesät. Nach 7 bis 9 Tagen berücksichtigt man die Keimungsfähigkeit von Samen, dann bestimmt man nach 3 Tagen den Befallumfang von Pflanzen durch Wurzelfäule, hervorgerufen durch einen Erregerkomplex. Die Versuche werden viermal wiederholt, als Vergleichsmuster dient Milon. Die Prüfergebnisse zeigt Tabelle 9.
# [5] = tested on: Larven von Fichtenböcken; assay: Insecticidal activity, topical application to larvae; format: in vivo, Fichtenböcke; conditions: 10%ige Lösung
# Source text: Die hohe insektizide Aktivität von Kalium-N-(vinyloxyathyl)dithiocarbamat und Zink-bis-(N-vinyloxyathyl- dithiocarbamat) wurde in Versuchen an Larven von Fichtenböcken nachgewiesen. Geprüft wurden die 10%igen wäßrigen (oder alkoholischen) Lösungen, welche auf die Kopfbrust von Larven aufgebracht wurden. In Versuchen standen je 20 Larven zur Verfügung. Die Versuche wurden dreimal wiederholt. Die Mortalität wurde nach 1, 24 und 48 Stunden ermittelt. Die insektizide Aktivität der erfindungsgemäßen Stoffe ist bedeutend höher als die von Chlorophos.
# Die Prüfungen auf insektizide Aktivität werden an Larven von Fichtenböcken durchgeführt. Geprüft werden eine 10%ige wäßrige Lösung von Kalium-N-(vinyloxyäthyl)dithiocarbamat und eine 10%ige alkoholische Lösung von Zink-bis-N-(vinyloxyathyldithiocarbamat). In jedem Versuch stehen je 20 Larven zur Verfügung. Die Mortalität wird nach 1, 24 und 48 Stunden ermittelt. Die zu prüfenden Lösungen werden auf die Kopfbrust von Larven aufgebracht.
# [6] = tested on: Walrotiela subiculesa; assay: Mycelial growth inhibition on agar (contact activity); format: cell-based; conditions: Würzeagar
# Protocol: as §1
# (§3) Die Pilzkulturen werden auf Würzeagar gezüchtet. Ergebnisse, erhalten bei der Prüfung der fungiziden Aktivität gegen reine Kulturen von Mikroorganismen, welche Bioschädigungen hervorrufen, sind in der Tabelle 1 dargestellt.
# [7] = tested on: Cladosporium resinae; assay: as above; format: cell-based; conditions: Würzeagar
# Protocol: as §1, §3
# [8] = tested on: Oidium Sp.; assay: as above; format: cell-based; conditions: Würzeagar
# Protocol: as §1, §3
# [9] = tested on: Penicillium charlesii; assay: as above; format: cell-based; conditions: Würzeagar
# Protocol: as §1, §3
# [10] = tested on: Cladosporium cladosporioides; assay: as above; format: cell-based; conditions: Würzeagar
# Protocol: as §1, §3
# [11] = tested on: Penicillium chrysogenum; assay: as above; format: cell-based; conditions: Würzeagar
# Protocol: as §1, §3
# [12] = tested on: Acremonium charticola; assay: as above; format: cell-based; conditions: Würzeagar
# Protocol: as §1, §3
# [13] = tested on: Geotrichum candidum Link; assay: as above; format: cell-based; conditions: Würzeagar
# Protocol: as §1, §3
# [14] = tested on: Acremonium cowum; assay: as above; format: cell-based; conditions: Würzeagar
# Protocol: as §1, §3
# [15] = tested on: Rhizoctonia solani; assay: as above; format: cell-based; conditions: Wirkstoffkonzentration 0,003 %; Würzeagar; Tabelle 7
# Protocol: as §1
# Die fungizide Aktivität von Zink-bis-(N-vinyloxyäthyldithiocarbamat) gegen reine Kulturen von Pilzen Fusarium moniliforme, Fusarium sambucinum, Aspergillus niger, Rhizoctonia solani, Cladosporium resinae, Cladosporium cladosporioides, Acremonium cowum, Acremonium charticola, Penicillium chrysogenum, Penicillium charlesii Smith, Penicillium funiculosum, Geotrichum candidum Link, Walrotiela subiculesa, Oidium sp., Paecilomyces varioti, Stereum hirsutum wird gemäß Beispiel 8 untersucht.
# (§4) Als Nährmedium dient Würzeagar.
# [16] = tested on: Penicillium funiculosum; assay: as above; format: cell-based; conditions: Wirkstoffkonzentration 0,003 %; Würzeagar; Tabelle 8
# Protocol: as §1
# [17] = tested on: Paecilomyces varioti; assay: as above; format: cell-based; conditions: Wirkstoffkonzentration 0,003 %; Würzeagar; Tabelle 8
# Protocol: as §1
# [18] = tested on: Stereum hirsutum; assay: as above; format: cell-based; conditions: Wirkstoffkonzentration 0,003 %; Würzeagar; Tabelle 8
# Protocol: as §1
# [19] = tested on: Sphaeropsis malorum; assay: as above; format: cell-based; conditions: Wirkstoffkonzentration 0,003 %; Würzeagar; Tabelle 7
# Protocol: as §1, §4
# [20] = Solubility in water (descriptive); format: physicochemical
# [21] = tested on: Escherichia; assay: Bactericidal activity on agar (concentration of complete growth inhibition); format: cell-based; conditions: % bezogen auf den Wirkstoff; am 5. Tag
# Protocol: (§5) Geprüft wird die bakterizide Aktivität von Kalium-, Natrium-, Zink- und Kupfersalzen der N-(Vinyloxyäthyl)dithiocarbamidsäure gegen Bakterien der Gattungen Bacillus, Micrococcus, Pseudomonas, Escherichia und Xantomonas.
# (§6) Man stellt wäßrige Stofflösungen verschiedener Konzentration her, die so berechnet werden, daß die Stoffkonzentration in der Petri-Schale bei der Gabe von 1 ml Lösung in das geschmolzene Nährmedium (45 bis 50 °C) zwischen 0,003 und 25 % (bezogen auf den Wirkstoff) schwankt. Nach 18 bis 24 Stunden bringt man auf die Oberfläche des Nährmediums 0,1 ml wäßrige Suspension eintägiger reiner Kulturen von Bakterien auf und verteilt sie gleichmäßig. In Kontrollschalen verteilt sich 0,1 ml Wasser über die Oberfläche des Nährmediums. Die Inkubation erfolgt bei 37 °C innerhalb von 5 Tagen. Die Wirksamkeit der Stoffe wird nach dem Auftreten des Bakterienwachstums auf der Oberfläche des Nährmediums eingeschätzt. Die Prüfergebnisse sind in der Tabelle 13 dargestellt.
# [22] = tested on: Pseudomonas; assay: as above; format: cell-based; conditions: % bezogen auf den Wirkstoff; am 5. Tag
# Protocol: as §5, §6
# [23] = tested on: Bacillus; assay: as above; format: cell-based; conditions: % bezogen auf den Wirkstoff; am 5. Tag
# Protocol: as §5, §6
# [24] = tested on: Micrococcus; assay: as above; format: cell-based; conditions: % bezogen auf den Wirkstoff; am 5. Tag
# Protocol: as §5, §6
# [25] = Acute toxicity (LD50) in mice; format: in vivo, weißen Mäusen; conditions: perorale Applikation an weißen Mäusen
substance,measurement,setting,value
Zink-bis-(N-vinyloxyäthyldithiocarbamat),Myzelhemmung in %,[1],100%
same,Myzelhemmung in %,[2],100%
same,Myzelhemmung in %,[3]; Tabelle 7,90%
same,Myzelhemmung in %,[3]; Tabelle 8,90%
same,Entwicklung von Wurzelschimmel vermindert sich gegenüber Kontrolle,[4]; Aufzucht von Gurken,Ilfache
same,Samenkeimung steigt gegenüber Kontrolle,[4]; Aufzucht von Gurken,11%
same,Samenkeimung steigt gegenüber Milon (Vergleichmuster),[4]; Aufzucht von Gurken,15%
same,Keimungshäufigkeit in %,"[4]; Gurkensamen, 200 kg/ha Wirkstoff","85,1%"
same,Entwicklung von Krankheiten in %,"[4]; Wurzelfäule von Gurken, 200 kg/ha Wirkstoff","4,0%"
same,Mortalität von Larven der Fichtenböcke,[5]; Wirkungsdauer 1 Stunde,10%
same,Mortalität von Larven der Fichtenböcke,[5]; Wirkungsdauer 24 Stunden,88%
same,Mortalität von Larven der Fichtenböcke,[5]; Wirkungsdauer 48 Stunden,100%
same,Myzelhemmung in %,"[6]; Präparatkonzentration 0,0015 %",52%
same,Myzelhemmung in %,"[6]; Präparatkonzentration 0,003 %",100%
same,Myzelhemmung in %,"[6]; Präparatkonzentration 0,006 %",100%
same,Myzelhemmung in %,"[6]; Präparatkonzentration 0,012 %",100%
same,Myzelhemmung in %,"[7]; Präparatkonzentration 0,0015 %","37,5%"
same,Myzelhemmung in %,"[7]; Präparatkonzentration 0,003 %",100%
same,Myzelhemmung in %,"[7]; Präparatkonzentration 0,006 %",100%
same,Myzelhemmung in %,"[7]; Präparatkonzentration 0,012 %",100%
same,Myzelhemmung in %,"[8]; Präparatkonzentration 0,0015 %",80%
same,Myzelhemmung in %,"[8]; Präparatkonzentration 0,003 %",100%
same,Myzelhemmung in %,"[8]; Präparatkonzentration 0,006 %",100%
same,Myzelhemmung in %,"[8]; Präparatkonzentration 0,012 %",100%
same,Myzelhemmung in %,"[9]; Präparatkonzentration 0,0015 %",90%
same,Myzelhemmung in %,"[9]; Präparatkonzentration 0,003 %",100%
same,Myzelhemmung in %,"[9]; Präparatkonzentration 0,006 %",100%
same,Myzelhemmung in %,"[9]; Präparatkonzentration 0,012 %",100%
same,Myzelhemmung in %,"[10]; Präparatkonzentration 0,0015 %",100%
same,Myzelhemmung in %,"[10]; Präparatkonzentration 0,003 %",100%
same,Myzelhemmung in %,"[10]; Präparatkonzentration 0,006 %",100%
same,Myzelhemmung in %,"[10]; Präparatkonzentration 0,012 %",100%
same,Myzelhemmung in %,"[11]; Präparatkonzentration 0,0015 %",10%
same,Myzelhemmung in %,"[11]; Präparatkonzentration 0,003 %",40%
same,Myzelhemmung in %,"[11]; Präparatkonzentration 0,006 %",80%
same,Myzelhemmung in %,"[11]; Präparatkonzentration 0,012 %",100%
same,Myzelhemmung in %,"[12]; Präparatkonzentration 0,0015 %",50%
same,Myzelhemmung in %,"[12]; Präparatkonzentration 0,003 %",100%
same,Myzelhemmung in %,"[12]; Präparatkonzentration 0,006 %",100%
same,Myzelhemmung in %,"[12]; Präparatkonzentration 0,012 %",100%
same,Myzelhemmung in %,"[13]; Präparatkonzentration 0,0015 %",29%
same,Myzelhemmung in %,"[13]; Präparatkonzentration 0,003 %",100%
same,Myzelhemmung in %,"[13]; Präparatkonzentration 0,006 %",100%
same,Myzelhemmung in %,"[13]; Präparatkonzentration 0,012 %",100%
same,Myzelhemmung in %,"[14]; Präparatkonzentration 0,0015 %",40%
same,Myzelhemmung in %,"[14]; Präparatkonzentration 0,003 %",100%
same,Myzelhemmung in %,"[14]; Präparatkonzentration 0,006 %",100%
same,Myzelhemmung in %,"[14]; Präparatkonzentration 0,012 %",100%
same,Myzelhemmung in %,[15],100%
same,Myzelhemmung in %,[16],100%
same,Myzelhemmung in %,[17],100%
same,Myzelhemmung in %,[18],100%
same,Myzelhemmung in %,[19],100%
same,Löslichkeit in Wasser,[20],wasserunlöslich
same,"Konzentrationen, welche das Bakterienwachstum völlig (100 %) hemmen",[21],"0,05%"
same,"Konzentrationen, welche das Bakterienwachstum völlig (100 %) hemmen",[22],"0,05%"
same,"Konzentrationen, welche das Bakterienwachstum völlig (100 %) hemmen",[23],"0,05%"
same,"Konzentrationen, welche das Bakterienwachstum völlig (100 %) hemmen",[24],"0,05%"
same,LD50,[25],1120 ± 266 mg/kg
